These are literature values, as cited in patent US10314848B2, “Use of testosterone and a 5-HT1A agonist in the treatment of sexual dysfunction” (EB IP LYBRIDOS B.V., priority 2006, dated 2019).

The half-life is how long it takes for the measured level to halve.

Molecules are shown by their SMILES.

Consider `CCCc1nc(C)c2c(=O)nc(-c3cc(S(=O)(=O)N4CCN(CC)CC4)ccc3OCC)[nH]n12.Cl` [vardenafil, piperazine, 1-[[3-(1,4-dihydro-5-methyl-4-oxo-7-propylimidazo[5,1-f][1,2,4]triazin-2-yl)-4-ethoxyphenyl]sulfonyl]-4-ethyl-, monohydrochloride], for which the “Time to peak plasma concentration after administration” value (in vivo) is listed as “about 1 hour”. As to `O=C(NCCN1CCN(c2cccc3c2OC[C@H](CO)O3)CC1)c1ccc(F)cc1` [flesinoxan], the “Time to maximum plasma concentration” value (in vivo) was 1 to 2 h. Further, the half-life (single doses) was 5.5 h.
